The values below come from patent US9689017B2, “Method of semi-solid state fermentation for producing surfactin from a mutant strain of Bacillus subtilis subsp” (priority 2014, dated 2017).

Converted amounts (≈) assume the structure as drawn. Like-named read-outs stand apart in the source and are kept apart here. Starred links: 1 amine or outer side, 2 acyl side, 3 side chain; linkers in the order of their positions; H or OH if unused. Positions of bridges follow the written chain, without caps; N, C: chain ends. Non-standard residues stand in square brackets, D forms with d. Residues, ends and D or L forms follow the SMILES beside them. X1 = CC(C)CCCCCCCCC[C@H](CC(=O)[*:1])O[*:2]

One assay relates to Escherichia coli DH5α. Kind of assay: Antimicrobial test for surfactin (MIC, 96-well broth dilution). It counts as cell-based. The conditions noted are these: 16 h, E. coli, 16 hrs at 37° C., read-out: minimum inhibitory concentration (MIC). As to the method:
(§1) Escherichia coli DH5α, Vibrio harveyi, Vibrio alginolyticus, Vibrio anguillarum, Vibrio salmonicida, Aeromonas hydrophila and Staphylococcus epidermidis are separately inoculate onto LBA (E. coli DH5α) or TSA (+1.5% NaCl) and incubate at 37° C. for 16 hrs. Scrap off and dissolve the colonies in designated medium. When OD540 is at 1 (the concentration is around 1×10^9 colonies/c.c.), take 500 μl of the bacterial culture and add to 500 μl of LB or TSB (+1.5% NaCl) to make the bacterial concentration at […]; add 130 μl of the bacterial culture to each well of a 96-well plate, the concentration of bacterial culture is 1×10^4.5 colonies/c.c., before addition of 20 μl of chemically synthesized antimicrobial peptides at various concentrations. After 16 hrs of incubation at 37° C., the bacterial culture that is clear indicates the lowest concentration of the antimicrobial peptide, that is, minimum inhibitory concentration (MIC).

For a further assay, the system named is Vibrio alginolyticus. The description is as above. The conditions noted are these: 16 hrs at 37° C., read-out: minimum inhibitory concentration (MIC). It counts as cell-based. The protocol:
as §1

The next assay deals with Vibrio salmonicida. The description is as above. It counts as cell-based. The conditions noted are these: 16 hrs at 37° C., read-out: minimum inhibitory concentration (MIC). The protocol: as §1
The subject of assay [1] is Staphylococcus epidermidis. The assay is described as above. Particulars: 16 hrs at 37° C., read-out: minimum inhibitory concentration (MIC). In kind it is cell-based. The protocol: as §1
The test system of a further assay is Aeromonas hydrophila. Described as above. Particulars: 16 hrs at 37° C., read-out: minimum inhibitory concentration (MIC). In kind it is cell-based. The protocol: as §1
The next assay deals with Vibrio harveyi. Described as above. It counts as cell-based. Particulars: 16 hrs at 37° C., read-out: minimum inhibitory concentration (MIC). The protocol: as §1
In another assay the test system is Vibrio anguillarum. Described as above. In kind it is cell-based. Particulars: 16 hrs at 37° C., read-out: minimum inhibitory concentration (MIC). As to the method:
as §1

Assay [2] in a line: Antimicrobial test for surfactin, summary statement over the tested bacteria. In kind it is cell-based. The conditions noted are these: text summary of Table 2, all tested bacteria; read-out: minimum inhibitory concentration (MIC). The protocol: as §1
For assay [3] the following is noted: literature value, test organism not given; cited from earlier work.

As to `CC(C)CCCCCCCCC[C@@H]1CC(=O)N[C@@H](CCC(=O)O)C(=O)N[C@@H](CC(C)C)C(=O)N[C@H](CC(C)C)C(=O)N[C@@H](C(C)C)C(=O)N[C@@H](CC(=O)O)C(=O)N[C@H](CC(C)C)C(=O)N[C@@H](CC(C)C)C(=O)O1` [Bacillus subtilis subsp. ATCC21332, surfactin] (EL[dL]VD[dL]L; linker N-C via X1), the MIC in the assay with Escherichia coli DH5α was 193 µM (≈ 200 µg/mL); in the assay on Vibrio alginolyticus (16 h), 129 µM (≈ 133 µg/mL); in the assay with Vibrio salmonicida (Aliivibrio salmonicida, 16 h) it was 129 µM (≈ 133 µg/mL); in assay [1] (16 h), 129 µM (≈ 133 µg/mL); with Aeromonas hydrophila (Aeromonas hydrophila, 16 h), 129 µM (≈ 133 µg/mL); in the assay on Vibrio harveyi (16 h), 129 µM (≈ 133 µg/mL). In addition, the MIC with Vibrio anguillarum (Vibrio anguillarum, 16 h) is 129 µM (≈ 133 µg/mL).
Regarding `CC(C)CCCCCCCCC[C@@H]1CC(=O)N[C@@H](CCC(=O)O)C(=O)N[C@@H](CC(C)C)C(=O)N[C@H](CC(C)C)C(=O)N[C@@H](C(C)C)C(=O)N[C@@H](CC(=O)O)C(=O)N[C@H](CC(C)C)C(=O)N[C@@H](CC(C)C)C(=O)O1` [High-yield mutant strain, surfactin] (EL[dL]VD[dL]L; linker N-C via X1), the MIC (in the assay on Vibrio alginolyticus; in the assay with Vibrio salmonicida; in assay [1]; in the assay on Aeromonas hydrophila; in the assay on Vibrio harveyi; in the assay on Vibrio anguillarum) was 96.5 µM (≈ 100 µg/mL) each time. The MIC in [2] is 96.5 µM (≈ 100 µg/mL).
`CC(C)CCCCCCCCC[C@@H]1CC(=O)N[C@@H](CCC(=O)O)C(=O)N[C@@H](CC(C)C)C(=O)N[C@H](CC(C)C)C(=O)N[C@@H](C(C)C)C(=O)N[C@@H](CC(=O)O)C(=O)N[C@H](CC(C)C)C(=O)N[C@@H](CC(C)C)C(=O)O1` [surfactin] (EL[dL]VD[dL]L; linker N-C via X1): in assay [3], the “minimum inhibitory concentration (MIC)” value was 50 µg/mL (≈ 48.2 µM).
